Format in all cases: in vivo, BALB/c mice
Experiment [1] relates to CT26 tumor cells. Description: CTLA-4 peptide mimics in CT26-BALB/c tumor model (V32). The following applies: CT26, 200 ug peptide mimic from day 1, Day 14. As for the experimental part: 6-8 weeks old BALB/c mice were challenged with 1×10^5 per mouse CT26 tumor cells (FIG. 6A). After tumor challenge, the positive control group, we treat the mice with anti-mouse CTLA-4 antibody (clone 9H10) twice a week, start from day 1 post tumor challenge and the negative control group was treated with PBS. For the CTLA-4 peptide mimic treatment groups, mice were treated with 200 ug peptide mimics as indicated start from day 1 post tumor challenging. All the mice had been treated at day 1, day 2, day 5, day 7, day 9, day 12, day 14, and day 16 post tumor challenge. The immunogenicity (antibody titer) was under detectable. Tumor volume was calculated as: Tumor volume (LWW)=(Length×Width×Width)/2
Mice challenged with tumor cells were monitored at least twice per week and tumor sizes were measured by calipers. Formula: Volume (LWW)=(Length×Width×Width)/2 was used to calculate tumor volumes. […] Data statistical analysis was performed by GraphPad Prism 8.1.2 (GraphPad Software, Inc. San Diego, CA, USA) and the indicated statistical analysis. One-way analysis of variance (one-way ANOVA) and followed by the Tukey's multiple comparisons test were used to compare data in multiple groups or data between groups in multiple groups. And the two-way ANOVA was used to analysis the whole curves comparison. The Log-rank (Mantel-Cox) test was use to compare the survival curves. […]

In experiment [2] the test system is 4T1 breast cancer cells. The experiment in a line: CTLA-4 peptide vaccines in 4T1-BALB/c tumor model. The following applies: for survival versus PBS group (Log-rank test): 4T1. As for the experimental part:
6-8 weeks old BALB/c mice were vaccinated with MVF-CTLA-4 (59), MVF-CTLA-4 (75), MVF-CTLA-4 (92) or MVF-CTLA-4 (130) for 3 weeks interval. 0.1 mg peptide cancer vaccine mixed with ISA 720 (1:1) used per mouse. Mice were boosted with the designed doses for every 3 weeks intervals. Blood was collected weekly for monitoring antibody titers. After 2 weeks of the third time immunization (3Y), mice were challenged with 10^5 per mouse 4T1 (FIG. 4A). After tumor challenge, the positive control group, we treat the mice with anti-mouse CTLA-4 antibody (clone 9H10) twice a week for up to three weeks, and the negative control group was treated with PBS. Tumor volume was calculated as: Tumor volume (LWW)=(Length×Width×Width)/2
(§1) Mice challenged with tumor cells were monitored at least twice per week and tumor sizes were measured by calipers. Formula: Volume (LWW)=(Length×Width×Width)/2 was used to calculate tumor volumes. […] Data statistical analysis was performed by GraphPad Prism 8.1.2 (GraphPad Software, Inc. San Diego, CA, USA) and the indicated statistical analysis. One-way analysis of variance (one-way ANOVA) and followed by the Tukey's multiple comparisons test were used to compare data in multiple groups or data between groups in multiple groups. And the two-way ANOVA was used to analysis the whole curves comparison. The Log-rank (Mantel-Cox) test was use to compare the survival curves. P value or adjusted p value less than 0.05 was accepted as statistically significant different.

Experiment [3] has as its system D2F2 mammary tumor cells. The experiment in a line: CTLA-4 peptide vaccines in D2F2-BALB/c tumor model. The following applies: for survival versus PBS group (Log-rank test): D2F2. The method, then:
6-8 weeks old BALB/c mice were vaccinated with MVF-CTLA-4 (59), MVF-CTLA-4 (75), MVF-CTLA-4 (92) or MVF-CTLA-4 (130) for 3 weeks interval. 0.1 mg peptide cancer vaccine mixed with ISA 720 (1:1) used per mouse (FIG. 5A). Mice were boosted with the designed doses for every 3 weeks intervals. Blood was collected weekly for monitoring antibody titers. After 2 weeks of the third time immunization (3Y), mice were challenged with 2×10^5 per mouse D2F2 mammary tumor cells.
After tumor challenge, the positive control group, we treat the mice with anti-mouse CTLA-4 antibody (clone 9H10) twice a week for up to three weeks, and the negative control group was treated with PBS. Tumor volume was calculated as: Tumor volume (LWW)=(Length×Width×Width)/2.
as §1

Experiment [4] relates to CT26 colon carcinoma. Description: CTLA-4 peptide vaccines in CT26-BALB/c tumor model. As for the experimental part: 6-8 weeks old BALB/c mice were vaccinated with MVF-CTLA-4 (59), MVF-CTLA-4 (75), MVF-CTLA-4 (92) or MVF-CTLA-4 (130) for 3 weeks interval. 0.1 mg peptide cancer vaccine mixed with ISA 720 (1:1) used per mouse. Mice were boosted with the designed doses for every 3 weeks intervals. Blood was collected weekly for monitoring antibody titers.
After 2 weeks of the third time immunization (3Y), mice were challenged with 10^5 per mouse CT26 (FIG. 3A). After tumor challenge, the positive control group, we treat the mice with anti-mouse CTLA-4 antibody (clone 9H10) twice a week for up to three weeks, and the negative control group was treated with PBS. Tumor volume was calculated as: Tumor volume (LWW)=(Length×Width×Width)/2. Mean value of tumor growths in BALB/c mice were vaccinated with MVF-CTLA-4 (59), MVF-CTLA-4 (75), MVF-CTLA-4 (92) or MVF-CTLA-4 (130), PBS as negative control and anti-mouse CTLA-4 antibody (clone 9H10) as positive control. […] Individual mouse CT26 tumor growths in each group of mice were vaccinated with MVF-CTLA-4 (59), MVF-CTLA-4 (75), MVF-CTLA-4 (92) or MVF-CTLA-4 (130), PBS as negative control and anti-mouse CTLA-4 antibody (clone 9H10) as positive control (FIG. 3C).
as §1

Where no end group is shown, it is not given here. [ ]: non-standard residue; d: D form.

For the molecule “H2N-YIQTGNGIGLYYPPPYMLEVK-CONH2 (H-[dY][dI][dQ][dT]G[dN]G[dI]G[dL][dY][dY][dP][dP][dP][dY][dM][dL][dE][dV][dK]-NH2; also: retro-inverso) [CTLA-4 (9) RIL (150-130)]”, the “tumor volume, between groups comparison vs PBS (p or words)” value in experiment [1] is recorded as under 0.05.
Regarding “KLLSLIKGVIVHRLEGVE-GPSL-KVELMYPPPYYLGIGNGTQIY-CONH2 (KLLSLIKGVIVHRLEGVEGPSLKVELMYPPPYYLGIGNGTQIY-NH2; not fully specified; printed as KLLSLIKGVIVHRLEGVE-GPSL-KVELMYPPPYYLGIGNGTQIY-CONH2) [MVF-CTLA-4 (130)]”, the “tumor volume LWW versus PBS group” value in experiment [2] (4T1, day 14) is reported as “significant smaller tumor size”; in experiment [2] (4T1, day 14, listed as CTLA-4 (130)), “significantly smaller tumor size”; in experiment [3] (D2F2, day 14), “significantly smaller tumor size”; in experiment [3] (D2F2, day 16), “significantly smaller tumor size”; in experiment [3] (D2F2, day 19), “significantly smaller tumor size”; in experiment [3] (D2F2, day 21) it was “significantly smaller tumor size”. The “tumor volume LWW versus PBS group” value in experiment [4] (CT26, day 14) was “significant smaller tumor size”; in experiment [4] (CT26, day 14, listed as CTLA-4 (130)), “significantly smaller tumor size”; in experiment [4] (CT26, day 16), “significant smaller tumor size”; in experiment [4] (CT26, day 16, listed as CTLA-4 (130)) it was “significantly smaller tumor size”. In addition, the “survival versus PBS group (Log-rank test)” value in experiment [3] is “significant different longer survival”.
Take “KLLSLIKGVIVHRLEGVEGPSLEYASPGKATEVRVTVLRQA-CONH2 (KLLSLIKGVIVHRLEGVEGPSLEYASPGKATEVRVTVLRQA-NH2; not fully specified; printed as KLLSLIKGVIVHRLEGVEGPSLEYASPGKATEVRVTVLRQA-CONH2) [MVF-CTLA-4 (59)]”: the “survival versus PBS group (Log-rank test)” value in experiment [2] is “significant longer survival”; in experiment [3], “significant different longer survival”. The “tumor volume LWW versus PBS group” value is “significant smaller tumor size” in experiment [2] (4T1, day 14); “significantly smaller tumor size” in experiment [2] (4T1, day 14, listed as CTLA-4 (59)); “significant smaller tumor size” in experiment [2] (4T1, day 16); “significantly smaller tumor size” in experiment [2] (4T1, day 16, listed as CTLA-4 (59)); “significantly smaller tumor size” in experiment [3] (D2F2, day 14); “significantly smaller tumor size” in experiment [3] (D2F2, day 16). Further, the “tumor volume LWW versus PBS group” value in experiment [3] (D2F2, day 19) is “significantly smaller tumor size”; in experiment [3] (D2F2, day 21), “significantly smaller tumor size”; in experiment [4] (CT26, day 14), “significant smaller tumor size”; in experiment [4] (CT26, day 14, listed as CTLA-4 (59)) it was “significantly smaller tumor size”; in experiment [4] (CT26, day 16), “significant smaller tumor size”; in experiment [4] (CT26, day 16, listed as CTLA-4 (59)) it was “significantly smaller tumor size”.
Turning to “KLLSLIKGVIVHRLEGVEGPSLRQADSQVTEVCAATYMMG-CONH2 (KLLSLIKGVIVHRLEGVEGPSLRQADSQVTEVCAATYMMG-NH2; not fully specified; printed as KLLSLIKGVIVHRLEGVEGPSLRQADSQVTEVCAATYMMG-CONH2) [MVF-CTLA-4 (75)]”, the “survival versus PBS group (Log-rank test)” value in experiment [2] was “significant longer survival”. Further, the “tumor volume LWW versus PBS group” value in experiment [2] (4T1, day 14) is recorded as “significant smaller tumor size”; in experiment [2] (4T1, day 14, listed as CTLA-4 (75)), “significantly smaller tumor size”; in experiment [2] (4T1, day 16), “significant smaller tumor size”; in experiment [2] (4T1, day 16, listed as CTLA-4 (75)), “significantly smaller tumor size”; in experiment [3] (D2F2, day 14), “significantly smaller tumor size”; in experiment [3] (D2F2, day 16) it was “significantly smaller tumor size”. Besides, the “tumor volume LWW versus PBS group” value is recorded as “significantly smaller tumor size” in experiment [3] (D2F2, day 19) and “significantly smaller tumor size” in experiment [3] (D2F2, day 21).

B1: KLLSLIKGVIVHRLEGVEGPSLGNELTFLDDSICTGTSSGNQVNFHMSVVRARRNDSGTYL-CONH2 (peptide)
chain: KLLSLIKGVIVHRLEGVEGPSLGNELTFLDDSICTGTSSGNQVNFHMSVVRARRNDSGTYL-NH2
modifications: not fully specified; printed as KLLSLIKGVIVHRLEGVEGPSLGNELTFLDDSICTGTSSGNQVNFHMSVVRARRNDSGTYL-CONH2
With B1, the “tumor volume LWW versus PBS group” value is “significant smaller tumor size” in experiment [2] (4T1, day 16); “significantly smaller tumor size” in experiment [2] (4T1, day 16, listed as CTLA-4 (92)); “without difference” in experiment [3] (D2F2, day 14); “significantly smaller tumor size” in experiment [3] (D2F2, day 16); “significantly smaller tumor size” in experiment [3] (D2F2, day 19); “significantly smaller tumor size” in experiment [3] (D2F2, day 21). For the same molecule, the “tumor volume LWW versus PBS group” value in experiment [4] (CT26, day 14) was “significant smaller tumor size”; in experiment [4] (CT26, day 14, listed as CTLA-4 (92)), “significantly smaller tumor size”; in experiment [4] (CT26, day 16) it was “significant smaller tumor size”; in experiment [4] (CT26, day 16, listed as CTLA-4 (92)) it was “significantly smaller tumor size”.

For the origin of these results see patent publication US20260007730A1, “HUMAN CTLA-4 PEPTIDE VACCINES AND USES THEREOF” (Ohio State Innovation Foundation, priority 2022, published 2026).
